Measured values reported in US6355799B1, “Substituted benzene compounds, process for their preparation, and herbicidal and defoliant compositions containing them” (ISK Americas Incorporated, priority 1997, dated 2002).

Assays:
Assay type in all cases: in vivo
[1] = system: redroot pigweed (Amaranthus retroflexus, AMARE); assay: Pre-emerge test, greenhouse herbicide activity screening; conditions: pre-emerge, 14 days after application, rating scale 0-100
Outline: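 Compounds in acetone were track-sprayed at 187 l/ha, 15–1000 g ai/ha, onto sandy loam pots. Pre-emerge seeds were sown one day before spraying, with surface watering afterwards. Post-emerge plants were at the 2–3 leaf stage and sprayed with 0.25% v/v non-ionic surfactant. Injury was rated 0–100 at 14 days.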

[2] = system: barnyardgrass (Echinochloa crus-galli, ECHCG); assay: as above; conditions: pre-emerge, 14 days after application, rating scale 0-100
Outline: (§1)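 Plants grown in 10 cm pots of sandy loam mix received acetone-dissolved compounds through a moving flat-fan nozzle. Doses ranged from 15 to 1000 g ai/ha. Pre-emerge pots were seeded one day earlier, post-emerge pots 8–21 days earlier. Fourteen days on, each pot was graded 0–100 for damage.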

[3] = system: common ragweed (Ambrosia artemisizfolia L., AMBEL); assay: as above; conditions: pre-emerge, 14 days after application, rating scale 0-100
Outline: as §1

[4] = system: green foxtail (Setaria viridis, SETVI); assay: as above; conditions: pre-emerge, 14 days after application, rating scale 0-100
Outline: as §1

[5] = system: ivyleaf morningglory (Ipomoea hederacea, IPOHE); assay: as above; conditions: pre-emerge, 14 days after application, rating scale 0-100
Outline: as §1

[6] = system: johnsongrass (Sorghum halepense, SORHA); assay: as above; conditions: pre-emerge, 14 days after application, rating scale 0-100
Outline: as §1

[7] = system: lambsquarters (Chenopodium album, CHEAL); assay: as above; conditions: pre-emerge, 14 days after application, rating scale 0-100
Outline: as §1

[8] = system: large crabgrass (Digitaria sanguinalis, DIGSA); assay: as above; conditions: pre-emerge, 14 days after application, rating scale 0-100
Outline: as §1

[9] = system: sicklepod (Cassia obtusifolia, CASOB); assay: as above; conditions: pre-emerge, 14 days after application, rating scale 0-100
Outline: as §1

[10] = system: velvetleaf (Abutilon theophrasti, ABUTH); assay: as above; conditions: pre-emerge, 14 days after application, rating scale 0-100
Outline: as §1

[11] = system: field corn (Zea mays L., var. Dekalb 535, CORN); assay: Pre-emerge test, crop safety; conditions: pre-emerge, 14 days after application, rating scale 0-100
Outline: (§2)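 Visual ratings on a 0-100 scale (0 no damage, 100 all plants dead) were taken at 14 days after treatment. Rates of 15-1000 g ai/ha in acetone, 187 l/ha, were sprayed onto soil one day after planting (pre-emerge) or onto 2-3 leaf plants with 0.25% v/v surfactant (post-emerge).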

[12] = system: upland rice (Oryza sp., var. Tebonnet, RICE); assay: Pre-emerge test, crop safety; conditions: pre-emerge, 14 days after application, rating scale 0-100
Outline: as §2

[13] = system: barnyardgrass (Echinochloa crus-galli, ECHCG); assay: Post-emerge test, greenhouse herbicide activity screening; conditions: post-emerge, 14 days after application, rating scale 0-100
Outline: as §2

[14] = system: common ragweed (Ambrosia artemisizfolia L., AMBEL); assay: as above; conditions: post-emerge, 14 days after application, rating scale 0-100
Outline: as §2

[15] = system: green foxtail (Setaria viridis, SETVI); assay: as above; conditions: post-emerge, 14 days after application, rating scale 0-100
Outline: as §2

[16] = system: ivyleaf morningglory (Ipomoea hederacea, IPOHE); assay: as above; conditions: post-emerge, 14 days after application, rating scale 0-100
Outline: as §2

[17] = system: lambsquarters (Chenopodium album, CHEAL); assay: as above; conditions: post-emerge, 14 days after application, rating scale 0-100
Outline: as §2

[18] = system: large crabgrass (Digitaria sanguinalis, DIGSA); assay: as above; conditions: post-emerge, 14 days after application, rating scale 0-100
Outline: as §2

[19] = system: redroot pigweed (Amaranthus retroflexus, AMARE); assay: as above; conditions: post-emerge, 14 days after application
Outline: as §2

[20] = system: sicklepod (Cassia obtusifolia, CASOB); assay: as above; conditions: post-emerge, 14 days after application, rating scale 0-100
Outline: as §2

[21] = system: velvetleaf (Abutilon theophrasti, ABUTH); assay: as above; conditions: post-emerge, 14 days after application, rating scale 0-100
Outline: as §2

[22] = system: field corn (Zea mays L., var. Dekalb 535, CORN); assay: Post-emerge test, crop safety; conditions: post-emerge, 14 days after application, rating scale 0-100
Outline: (§3)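 Each test used a mechanized track sprayer delivering 187 l/ha of acetone solution at 15–1000 g ai/ha. Post-emerge foliage at 2–3 leaves was treated with added 0.25% v/v non-ionic surfactant and bottom-watered only. Injury was assessed on day 14, where 100 means total kill.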

[23] = system: upland rice (Oryza sp., var. Tebonnet, RICE); assay: Post-emerge test, crop safety; conditions: post-emerge, 14 days after application, rating scale 0-100
Outline: as §3

CCOc1c(Cl)cc(F)c(-n2c(=O)cc(C(F)(F)F)n(C)c2=O)c1Cl [14-62]
phytotoxicity rating AMARE ([1]; 63 g ai/ha): 40
phytotoxicity rating AMARE ([1]; 250 g ai/ha): 100
phytotoxicity rating ECHCG ([2]; 63 g ai/ha): 0
phytotoxicity rating ECHCG ([2]; 250 g ai/ha): 20
phytotoxicity rating AMBEL ([3]; 63 g ai/ha): 0
phytotoxicity rating AMBEL ([3]; 250 g ai/ha): 30
phytotoxicity rating SETVI ([4]; 63 g ai/ha): 0
phytotoxicity rating SETVI ([4]; 250 g ai/ha): 60
phytotoxicity rating IPOHE ([5]; 63 g ai/ha): 0
phytotoxicity rating IPOHE ([5]; 250 g ai/ha): 0
phytotoxicity rating SORHA ([6]; 63 g ai/ha): 0
phytotoxicity rating SORHA ([6]; 250 g ai/ha): 60
phytotoxicity rating CHEAL ([7]; 63 g ai/ha): 20
phytotoxicity rating CHEAL ([7]; 250 g ai/ha): 80
phytotoxicity rating DIGSA ([8]; 63 g ai/ha): 0
phytotoxicity rating DIGSA ([8]; 250 g ai/ha): 50
phytotoxicity rating CASOB ([9]; 63 g ai/ha): 0
phytotoxicity rating CASOB ([9]; 250 g ai/ha): 0
phytotoxicity rating ABUTH ([10]; 63 g ai/ha): 15
phytotoxicity rating ABUTH ([10]; 250 g ai/ha): 95
phytotoxicity rating CORN ([11]; 63 g ai/ha): 0
phytotoxicity rating CORN ([11]; 250 g ai/ha): 5
phytotoxicity rating RICE ([12]; 63 g ai/ha): 0
phytotoxicity rating RICE ([12]; 250 g ai/ha): 15
Post-emerge Herbicidal Activity ECHCG (phytotoxicity rating) ([13]; 63 g ai/ha): 0
Post-emerge Herbicidal Activity ECHCG (phytotoxicity rating) ([13]; 250 g ai/ha): 0
Post-emerge Herbicidal Activity AMBEL (phytotoxicity rating) ([14]; 63 g ai/ha): 40
Post-emerge Herbicidal Activity AMBEL (phytotoxicity rating) ([14]; 250 g ai/ha): 30
Post-emerge Herbicidal Activity SETVI (phytotoxicity rating) ([15]; 63 g ai/ha): 0
Post-emerge Herbicidal Activity SETVI (phytotoxicity rating) ([15]; 250 g ai/ha): 0
Post-emerge Herbicidal Activity IPOHE (phytotoxicity rating) ([16]; 63 g ai/ha): 30
Post-emerge Herbicidal Activity IPOHE (phytotoxicity rating) ([16]; 250 g ai/ha): 50
Post-emerge Herbicidal Activity CHEAL (phytotoxicity rating) ([17]; 63 g ai/ha): 10
Post-emerge Herbicidal Activity CHEAL (phytotoxicity rating) ([17]; 250 g ai/ha): 20
Post-emerge Herbicidal Activity DIGSA (phytotoxicity rating) ([18]; 63 g ai/ha): 0
Post-emerge Herbicidal Activity DIGSA (phytotoxicity rating) ([18]; 250 g ai/ha): 0
Post-emerge Herbicidal Activity AMARE (phytotoxicity rating) ([19]; 63 g ai/ha, rating scale 0-100 (0 no damage, 100 complete death)): 30
Post-emerge Herbicidal Activity AMARE (phytotoxicity rating) ([19]; 250 g ai/ha, rating scale 0-100): 50
Post-emerge Herbicidal Activity CASOB (phytotoxicity rating) ([20]; 63 g ai/ha): 0
Post-emerge Herbicidal Activity CASOB (phytotoxicity rating) ([20]; 250 g ai/ha): 30
Post-emerge Herbicidal Activity ABUTH (phytotoxicity rating) ([21]; 63 g ai/ha): 40
Post-emerge Herbicidal Activity ABUTH (phytotoxicity rating) ([21]; 250 g ai/ha): 60
Post-emerge Herbicidal Activity CORN (crop damage rating) ([22]; 63 g ai/ha): 5
Post-emerge Herbicidal Activity CORN (crop damage rating) ([22]; 250 g ai/ha): 5
Post-emerge Herbicidal Activity RICE (crop damage rating) ([23]; 63 g ai/ha): 0
Post-emerge Herbicidal Activity RICE (crop damage rating) ([23]; 250 g ai/ha): 5
